± gives the expanded uncertainty stated by the source.
Assay: osmotic coefficient (dimensionless); mn = molality of the nth substance listed, in mol/kg
Conditions: 298.15 K, Liquid, isopiestic method

O=S(=O)([O-])[O-].[K+].[K+] [potassium sulfate] + O
Conditions	osmotic coefficient
m1 = 0.4526	0.693 ± 0.015
m1 = 0.4667	0.692 ± 0.015
m1 = 0.4747	0.691 ± 0.015
m1 = 0.5108	0.686 ± 0.016
m1 = 0.5495	0.682 ± 0.016
m1 = 0.5708	0.68 ± 0.016
m1 = 0.6064	0.677 ± 0.016
m1 = 0.6321	0.675 ± 0.016
m1 = 0.6366	0.673 ± 0.016
m1 = 0.6529	0.673 ± 0.016

From the NIST ThermoML archive (doi:10.1016/j.jct.2014.07.010)
